Assay results published in patent US8716478B2, “Boron-containing small molecules” (Anacor Pharmaceuticals, Inc., priority 2010, dated 2014).

Experiments:
human PDE4 enzyme = assay: Phosphodiesterase 4 (PDE4) inhibition, semi-purified enzyme from human U937 cells; type: biochemical; conditions: 1 μM cAMP, 20 minutes at 25° C.; read-out: PDE4 IC50
[1] = test system: TNF-α in peripheral blood mononuclear cells (PBMCs); assay: TNF-α inhibition in LPS-stimulated peripheral blood mononuclear cells; type: cell-based; conditions: PBMC; PBMCs, LPS 1 μg/mL for 24 h; read-out: Proinflammatory TNF-α IC50
Procedure: Peripheral blood mononuclear cells (PBMCs) pooled from 10-20 donors were obtained from a local blood bank, ficoll gradient purified, and stored frozen in liquid nitrogen. Cells were thawed and seeded into 96-well plates at 5×10^5 cells/well in RPMI 1640 with 10% heat-inactivated fetal calf serum (MediaTech, Inc, Hearndon, Va., USA), Test articles were evaluated at the indicated concentrations in 150 μL media containing <2% DMSO, final, with stimulant and PBMCs. Cells were stimulated with lipopolysaccharide (LPS, phenol-extract from E. coli, Sigma-Aldrich, St. Louis, Mo.) at 1 μg/mL. Stimulation was with LPS for 24 h to measure TNF-α. Cytokines in supernatants were analyzed with a FACSArray flow cytometer (BD Biosciences, San Jose, Calif., USA) using the BD Cytometric Bead Array (CBA) Flex Set (BD Biosciences). IC50 values were calculated using the four parameter logistic equation.

TNF-α = assay: In vivo TNF-α release in LPS treated mice; design: species or system Swiss Webster mice
Procedure: In vivo TNF-α release was measured in Swiss Webster mice, 10/group. Animals were dosed via oral gavage with drug 1% CMC suspension. Thirty minutes later LPS, 1.5 mg/kg was administered by intraperitoneal injection. Ninety minutes later animals were sacrificed, blood was collected by exsangination and serum prepared for analysis. TNF-α concentration was assessed by ELISA, non-drug treated animals had TNF-α levels 1000-3000 pg/mL. 6-(1-Hydroxy-1,3-dihydrobenzo[c][1,2]oxaborol-5-yloxy)-2-(2-isopropoxyethoxy)nicotinonitrile (D140) and 6-(1-hydroxy-1,3-dihydrobenzo[c][1,2]oxaborol-5-yloxy)-2-(4-oxopentyloxy)nicotinonitrile (D141) are disclosed in U.S. patent application Ser. No. 12/399,015, filed Mar. 5, 2009.

[2] = Pharmacokinetics and oral bioavailability after IV and PO dosing; type: in vivo, female CD-1 mice; conditions: plasma; for bioavailability / AUC: female, CD-1, mouse; for bioavailability: po; for AUC: 10 mg/kg oral suspension dose; for clearance: mouse, 5 mg/kg, female CD-1 mice, intravenous
Procedure: The objective of this study was to evaluate the pharmacokinetics and oral bioavailability of PDE4 inhibitors following intravenous (IV) administration and oral (PO) doses in female CD-1 mice.
After dosing, blood samples were collected through 24 h, twice from each animal at specific times (3 mice/time point), into microcentrifuge tubes containing K2EDTA (anticoagulant), stored on wet ice and processed for plasma. The plasma samples were analyzed for concentrations of parent compound by LC/MS/MS using an internal standard/peak area method. Pharmacokinetic analysis of the mean plasma concentration-time profiles following IV and PO administration was performed.
[…] Dosing solutions for intravenous administration were prepared in 55% PEG300/25% PG/20% water. Oral dosing used a suspension prepared in 1% CMC in water with 0.1% Tween 80.
After dosing, blood samples were collected through 24 h, twice from each animal via retro-orbital bleed (˜0.1 mL, 1st time point) or cardiac puncture (˜0.6 mL, 2nd time point) at specific times (3 mice/time point), into microcentrifuge tubes containing K2EDTA (anticoagulant) and stored on wet ice prior to processing.
Plasma was prepared by centrifugation of blood samples for 6 min at approximately 2000×g or 6000 rpm at 4° C. All processed plasma samples (˜50 μL and 300 μL) were transferred to analysis tubes, placed on dry ice immediately and later stored at −80° C. until analysis for concentrations of experimental compound by LC/MS/MS.
Mouse IV clearance, Mouse Oral AUC and Oral Bioavailability are provided below. 6-(1-Hydroxy-1,3-dihydrobenzo[c][1,2]oxaborol-5-yloxy)-2-(2-isopropoxyethoxy)nicotinonitrile (D140) and 6-(1-hydroxy-1,3-dihydrobenzo[c][1,2]oxaborol-5-yloxy)-2-(4-oxopentyloxy)nicotinonitrile (D141) are disclosed in U.S. patent application Ser. No. 12/399,015, filed Mar. 5, 2009.

| SMILES | IC50 (human PDE4 enzyme) [nM] | IC50 [1] [nM] | bioavailability [2] [%] | AUC [2] [ng·h/mL] | clearance [2] [mL/min/kg] | further results |
| --- | --- | --- | --- | --- | --- | --- |
| CC(=O)CCCOc1nc(Oc2ccc3c(c2)COB3O)c(C#N)cc1Cl [Compound D253, 5-Chloro-2-(1-hydroxy-1,3-dihydrobenzo[c][1,2]oxaborol-5-yloxy)-6-(4-oxopentyloxy)nicotinonitrile] | 0.25 | 0.57 | – | – | – | – |
| N#Cc1cc(Cl)c(Oc2ccc3c(c2)COB3O)nc1OCCOC1CC1 [Compound D239, 5-Chloro-2-(2-cyclopropoxyethoxy)-6-(1-hydroxy-1,3-dihydrobenzo[c][1,2]oxaborol-5-yloxy)nicotinonitrile] | 1.3 | 0.65 | – | – | – | – |
| CC(C)OCCOc1nc(Oc2ccc3c(c2)COB3O)c(Cl)cc1C#N [Compound D230, 5-chloro-6-(1-hydroxy-1,3-dihydrobenzo[c][1,2]oxaborol-5-yloxy)-2-(2-isopropoxyethoxy)nicotinonitrile] | 5.2 | 2.5 | 60 | 3000 | 36.7 | % Inhibition of TNFa Blood Levels in LPS Treated Mice (TNF-α; Oral Dose 0.1 mg/kg): 39%; % Inhibition of TNFa Blood Levels in LPS Treated Mice (TNF-α; Oral Dose 0.3 mg/kg): 59%; % Inhibition of TNFa Blood Levels in LPS Treated Mice (TNF-α; Oral Dose 0.5 mg/kg): 55%; % Inhibition of TNFa Blood Levels in LPS Treated Mice (TNF-α; Oral Dose 1 mg/kg): 76%; % Inhibition of TNFa Blood Levels in LPS Treated Mice (TNF-α; Oral Dose 3 mg/kg): 80%; % Inhibition of TNFa Blood Levels in LPS Treated Mice (TNF-α; Oral Dose 5 mg/kg): 77%; % Inhibition of TNFa Blood Levels in LPS Treated Mice (TNF-α; Oral Dose 10 mg/kg): 77% |
| Cc1cc(Oc2nc(OCCOC(C)C)c(C#N)cc2Cl)cc2c1B(O)OC2 [Compound D245, 5-Chloro-6-(1-hydroxy-7-methyl-1,3-dihydrobenzo[c][1,2]oxaborol-5-yloxy)-2-(2-isopropoxyethoxy)nicotinonitrile] | 2 | 26 | – | – | – | – |
| CC(C)OCCOc1nc(Oc2cc(F)c3c(c2)COB3O)cc(C(F)(F)F)c1C#N [Compound D254, 6-(7-fluoro-1-hydroxy-1,3-dihydrobenzo[c][1,2]oxaborol-5-yloxy)-2-(2-isopropoxyethoxy)-4-(trifluoromethyl)nicotinonitrile] | – | 3.5 | 58 | 110000 | 1.05 | – |
| N#Cc1cc(Cl)c(Oc2ccc3c(c2)COB3O)nc1OCCOC(F)(F)F [Compound D235] | – | 2.2 | – | 5840 | 20.2 | – |
| CC(C)OCCOc1nc(Oc2ccc3c(c2)COB3O)c(C2CC2)cc1C#N [Compound D237, 5-cyclopropyl-6-(1-hydroxy-1,3-dihydrobenzo[c][1,2]oxaborol-5-yloxy)-2-(2-isopropoxyethoxy)nicotinonitrile] | – | 1.5 | 100 | 6920 | 26.8 | – |
| CC(C)OCCOc1nc(Oc2ccc3c(c2)COB3O)cc(C(F)(F)F)c1C#N [Compound D241, 6-(1-hydroxy-1,3-dihydrobenzo[c][1,2]oxaborol-5-yloxy)-2-(2-isopropoxyethoxy)-4-(trifluoromethyl)nicotinonitrile] | 1.1 | 2.9 | 100 | 14900 | 14.2 | – |
| CC(=O)CCCOc1nc(Oc2cc3c(cc2F)B(O)OC3)c(Cl)cc1C#N [Compound D250, 5-Chloro-6-(6-fluoro-1-hydroxy-1,3-dihydrobenzo[c][1,2]oxaborol-5-yloxy)-2-(4-oxopentyloxy)nicotinonitrile] | – | 0.41 | 71 | 17000 | 7.83 | – |
| COCC(COc1nc(Oc2ccc3c(c2)COB3O)c(Cl)cc1C#N)OC (stereo not drawn) [Compound D232, 5-Chloro-2-(2,3-dimethoxypropoxy)-6-(1-hydroxy-1,3-dihydrobenzo[c][1,2]oxaborol-5-yloxy)nicotinonitrile] | 23 | 98 | – | – | – | – |
| CC(=O)CCCOc1nc(Oc2cc(F)c3c(c2)COB3O)c(Cl)cc1C#N [Compound D248, 5-Chloro-6-(7-fluoro-1-hydroxy-1,3-dihydrobenzo[c][1,2]oxaborol-5-yloxy)-2-(4-oxopentyloxy)nicotinonitrile] | 1.7 | 0.93 | 79 | 91000 | 1.83 | – |
| CC(=O)CCCOc1nc(Oc2ccc3c(c2)COB3O)c(C2CC2)cc1C#N [Compound D236, 5-cyclopropyl-6-(1-hydroxy-1,3-dihydrobenzo[c][1,2]oxaborol-5-yloxy)-2-(4-oxopentyloxy)nicotinonitrile] | – | 0.34 | 100 | 5620 | 34.2 | – |
| CC(C)OCCOc1nc(Oc2ccc3c(c2)COB3O)c(C#N)cc1C#N [Compound D243, 2-(1-Hydroxy-1,3-dihydrobenzo[c][1,2]oxaborol-5-yloxy)-6-(2-isopropoxyethoxy)pyridine-3,5-dicarbonitrile] | 6.5 | 1.1 | 96 | 3900 | 50 | – |
| CC(=O)CCCOc1nc(Oc2cc(C)c3c(c2)COB3O)c(Cl)cc1C#N [Compound D246, 5-Chloro-6-(1-hydroxy-7-methyl-1,3-dihydrobenzo[c][1,2]oxaborol-5-yloxy)-2-(4-oxopentyloxy)nicotinonitrile] | 1.3 | 11 | – | – | – | – |
| CC(C)OCCOc1nc(Oc2cc(F)c3c(c2)COB3O)c(Cl)cc1C#N [Compound D247, 5-Chloro-6-(7-fluoro-1-hydroxy-1,3-dihydrobenzo[c][1,2]oxaborol-5-yloxy)-2-(2-isopropoxyethoxy)nicotinonitrile] | 19 | 2.9 | 100 | 21000 | 18.3 | – |
| CC(=O)CCCOc1nc(Oc2ccc3c(c2)COB3O)c(C#N)cc1C#N [Compound D244, 2-(1-Hydroxy-1,3-dihydrobenzo[c][1,2]oxaborol-5-yloxy)-6-(4-oxopentyloxy)pyridine-3,5-dicarbonitrile] | – | 0.21 | 100 | 13600 | 23.3 | – |
| CC(=O)CCCOc1nc(Oc2ccc3c(c2)COB3O)cc(C(F)(F)F)c1C#N [Compound D242, 6-(1-Hydroxy-1,3-dihydrobenzo[c][1,2]oxaborol-5-yloxy)-2-(4-oxopentyloxy)-4-(trifluoromethyl)nicotinonitrile] | 2.2 | 0.21 | 15 | 590 | 567 | – |
| CC(C)OCCOc1nc(Oc2cc3c(cc2F)B(O)OC3)c(Cl)cc1C#N [Compound D249, 5-Chloro-6-(6-fluoro-1-hydroxy-1,3-dihydrobenzo[c][1,2]oxaborol-5-yloxy)-2-(2-isopropoxyethoxy)nicotinonitrile] | – | 2.3 | 100 | 3300 | 59.1 | – |
| [2H]C1([2H])OB(O)c2ccc(Oc3nc(OCCOC(C)C)c(C#N)cc3Cl)cc21 [Compound D251, 5-Chloro-6-(3,3-dideuterio-1-hydroxy-1,3-dihydrobenzo[c][1,2]oxaborol-5-yloxy)-2-(2-isopropoxyethoxy)nicotinonitrile] | – | 2.3 | – | 6300 | 44.5 | – |
| CC(C)OCCOc1nc(Oc2ccc3c(c2)COB3O)c(C(F)(F)F)cc1C#N [Compound D238, 6-(1-Hydroxy-1,3-dihydrobenzo[e][1,2]oxaborol-5-yloxy)-2-(2-isopropoxyethoxy)-5-(trifluoromethyl)nicotinonitrile] | – | 1.1 | 65 | 11200 | 9.85 | – |
